This note sets out measurements from ChEMBL document CHEMBL2074391, “Overlapping substrate specificities of cytochrome P450 3A and P-glycoprotein for a novel cysteine protease inhibitor” (Drug Metab Dispos, 1998).

Data set [1] has as its target T1, ABCB1 (P-glycoprotein) (Homo sapiens, UniProt P08183). The experiment in a line: TP_TRANSPORTER: inhibition of photolabeling by Azidopine (Azidopine: 0.05 uM, K02: 10 uM) in membranes from CEM5k cells. Format: functional, cell membranes, Membrane. Particulars: probe Azidopine (0.05 uM).
For data set [2], the target named is ATP-dependent translocase ABCB1 (Homo sapiens, UniProt P08183). Description: TP_TRANSPORTER: transepithelial transport (basal to apical) in MDR1-expressing MDCK cells. Format: functional, cell-based. Conditions: dog.
ATP-dependent translocase ABCB1, sequence (P08183 whole entry): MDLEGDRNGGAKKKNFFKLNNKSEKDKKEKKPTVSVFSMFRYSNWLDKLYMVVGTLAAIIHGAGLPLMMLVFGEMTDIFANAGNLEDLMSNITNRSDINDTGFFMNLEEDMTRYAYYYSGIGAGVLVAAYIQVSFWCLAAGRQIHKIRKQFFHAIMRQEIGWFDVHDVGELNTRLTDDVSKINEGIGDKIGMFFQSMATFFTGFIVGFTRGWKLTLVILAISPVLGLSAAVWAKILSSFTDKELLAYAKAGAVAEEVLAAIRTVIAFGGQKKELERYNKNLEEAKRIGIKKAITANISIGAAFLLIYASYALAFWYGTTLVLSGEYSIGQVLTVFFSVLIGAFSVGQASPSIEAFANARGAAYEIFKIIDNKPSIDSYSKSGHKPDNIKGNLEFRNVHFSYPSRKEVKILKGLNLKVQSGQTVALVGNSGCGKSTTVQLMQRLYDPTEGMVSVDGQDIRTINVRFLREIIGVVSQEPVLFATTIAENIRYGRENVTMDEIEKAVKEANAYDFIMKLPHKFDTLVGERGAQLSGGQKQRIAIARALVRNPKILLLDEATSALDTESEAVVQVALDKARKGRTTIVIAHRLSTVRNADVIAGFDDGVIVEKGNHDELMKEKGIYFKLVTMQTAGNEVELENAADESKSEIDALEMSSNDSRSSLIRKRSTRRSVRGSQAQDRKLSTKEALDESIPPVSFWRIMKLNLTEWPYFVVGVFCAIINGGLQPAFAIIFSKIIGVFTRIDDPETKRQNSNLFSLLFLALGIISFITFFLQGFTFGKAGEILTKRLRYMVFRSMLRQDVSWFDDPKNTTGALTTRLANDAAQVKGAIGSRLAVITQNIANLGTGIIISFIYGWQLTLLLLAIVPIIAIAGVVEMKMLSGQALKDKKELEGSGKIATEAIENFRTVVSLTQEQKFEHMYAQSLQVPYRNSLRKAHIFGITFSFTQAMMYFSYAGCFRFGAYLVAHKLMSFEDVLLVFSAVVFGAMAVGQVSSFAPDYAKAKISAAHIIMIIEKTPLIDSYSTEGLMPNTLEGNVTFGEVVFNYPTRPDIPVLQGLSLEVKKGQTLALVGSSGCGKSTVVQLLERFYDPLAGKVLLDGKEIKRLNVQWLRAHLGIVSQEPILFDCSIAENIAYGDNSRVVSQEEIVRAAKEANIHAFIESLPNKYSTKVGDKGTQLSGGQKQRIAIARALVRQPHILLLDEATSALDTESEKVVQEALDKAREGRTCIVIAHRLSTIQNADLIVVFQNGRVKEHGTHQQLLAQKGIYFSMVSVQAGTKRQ
Data set [3] has as its target T1, ABCB1 (P-glycoprotein). Description: TP_TRANSPORTER: inhibition of photolabeling by LU-49888 (LU-49888: 0.1 uM, K02: 10 uM) in membranes from CEM5k cells. Conditions: probe LU-49888 (0.1 uM). It counts as functional, cell membranes, Membrane.

What is called inhibition is the relative decrease from the control value, in per cent. Lower therefore signals a weak effect.

Structures are written as SMILES.

T1 sequence (P08183 whole entry): as above

`O=C(N[C@H](/C=C/S(=O)(=O)c1ccccc1)CCc1ccccc1)[C@H](Cc1ccccc1)NC(=O)N1CCOCC1`: the inhibition at 10 µM worked out at 74% against ABCB1 (P-glycoprotein) [1] and 80% on ABCB1 (P-glycoprotein) [3]. Also, the Activity entry in data set [2] is “substrate [+]”.
